Results taken from US7842488B2, “Polynucleotides encoding a human 3-phosphoinositide- dependent protein kinase” (Medical Research Council, priority 1997, dated 2010).
“Also recorded” adds a separate entry of the source.

Legend:
Myc-PDK1 = assay: 32P-labelling of 293 cells: phosphorylation of Myc-PDK1; type: cell-based, human; settings: 5 min
Procedure: (§1) ^32P-labelling of 293 cells transfected with HA-PKBα or Myc-PDK1. This was carried out essentially as described previously. Briefly, 293 cells were transfected with HA-PKBα, or with HA-PKBα plus Myc-PDK1, washed with phosphate free DMEM, incubated for 4 h with [^32P]-orthophosphate (1 mCi/ml), then stimulated with IGF1 (50 ng/ml) for 5 min. The cells were lysed, and the HA-PKBα immunoprecipitated (using 10 μg of 12CAS antibody per 10 cm dish of cells) or the Myc-PDK1 immunoprecipitated (using 10 μg of 9E10 antibody per 10 cm dish of cells). The immunoprecipitated protein was alkylated with 4-vinylpyridine, subjected to SDS/polyacrylamide gel electrophoresis, digested with trypsin and analysed by chromatography on a C18 column (Alessi et al (1996) EMBO J. 15, 6541-6551).
In order to see if IGF1 stimulation was inducing the phosphorylation of PDK1, 293 cells were transfected with Myc-PDK1 (encoding residues 52 to 556), incubated with ^32P-phosphate, stimulated with buffer or IGF1 for 5 min and ^32P-labelled Myc-PDK1 was immunoprecipitated from the lysates. After digestion with trypsin, the resulting peptides were analysed by C18 chromatography. […] One of the in vivo phosphorylation sites on PDK1 was identified as Ser-241 which lies in the equivalent position to Thr308 of PKB in the kinase domain.

GST-PKBα = assay: Activation of GST-PKBα after stimulation of transfected 293 cells; type: cell-based, human; settings: versus unstimulated 293 cells
Text: Expression of GST-PKBα in 293 cells. The DNA sequence encoding PKBα was subcloned into the eukaryotic expression vector PEBG2T that has been used to overexpress GST-fusion proteins in eukaryotic cells under an EF1α promoter. A PCR reaction was set up to generate a full length cDNA encoding the PKBα gene with a BamH1site at the 5′ end of the cDNA that is in frame with the GST sequence of the PEBG2T vector and the ATG initiation codon of PKBα, and a KpnI site at the 3′ end, using the human PCMV5-HA-PKBα plasmid. The DNA sequence of the BamH1/KpnI cDNA fragment was checked and then subcloned into the unique BamH1/KpnI restriction sites on the pEBG 2T expression vector. In order to prepare GST-PKBα, 40, 10 cm diameter dishes of human embryonic kidney 293 cells were cultured and each dish transfected with 20 μg of GST PKBα expression construct using the modified calcium phosphate method described previously for overexpression of haemaglutinin tagged PKBα in 293 cells. […]

PDK1 [1] = assay: Endogenous PDK1 activity in lysates of IGF1-stimulated 293 cells; type: cell-based, human; settings: up to 10 min
Procedure: PDK1 is not activated or phosphorylated by IGF1. 293 cells were serum starved for 16 h, stimulated with IGF1 lysed and the endogenous PDK1 activity present in the cell lysates was determined after chromatography on heparin-Sepharose (see Methods).

HA-PKBα [2] = assay: 32P-labelling of transfected 293 cells: phosphorylation sites of HA-PKBα; type: cell-based, human; settings: 293 cells cotransfected with PDK1
Procedure: FIG. 15. Overexpression of PDK1 in cells induces phosphorylation of PKBα at Thr308. 293 cells transiently transfected with either wild type HA-PKBα (panels A and C) or HA-PKBα and Myc-PDK1 (panels B and D) were incubated with ^32P-orthophosphate, then treated for 10 min without (panels A and B) or with (panels C and D) 50 ng/ml IGF1. The ^32P-labelled HA-PKBα was immunoprecipitated from the lysates, treated with 4-vinylpyridine, and electrophoresed on 1 10% polyacrylamide gel. The HA-PKBα was excised from the gel, digested with trypsin and chromatographed on a C18 column (see legend to FIG. 13) to resolve the four major phosphopeptides which are phosphorylated at Ser-124, Ser473, Thr308 and Thr450 respectively. The identity of each phosphopeptide was established by phospho-amino acid analysis and solid phase sequencing. Similar results were obtained in two separate experiments for (panels A and C), and in three separate experiments (panels B and D).
as §1

HA-PKBα [3] = assay: HA-PKBα activity in transfected 293 cells; type: cell-based, human
Procedure: FIG. 14. PKBα is activated by cotransfection with PDK1 in 293 cells. (A) 293 cells were transiently transfected with DNA constructs expressing either HA-PKBα or both HA-PKBα and Myc-PDK1. The cells were then stimulated for 10 min with or without 50 ng/ml IGF1, the HA-PKBα immunoprecipitated from the lysates and assayed. The results are expressed relative to the specific activity of wild type HA-PKBα in unstimulated 293 cells ([…]). No PKBα activity was detected in mock transfections in which the cells were transfected with PCMV5 vector alone (data not shown). (B) 6 μg of protein from each lysate was electrophoresed on a 10% SDS/polyacrylamide gel and immunoblotted using either a monoclonal HA-antibody to detect HA-PKBα or a monoclonal Myc-antibody to detect Myc-PDK1. The molecular mass markers are glycogen phosphorylase (97 kDa), bovine serum albumin (67 kDa) and ovalbumin (43 kDa).
Transfection of 293 cells with HA-tagged PBKα and Myc-PDK1. Human embryonic kidney 293 cells were cultured on 10 cm diameter dishes and transfected with 2 μg/ml pCMV5 DNA constructs encoding for HA-PKBα or HA-PKBα plus Myc-PDK1 [20]. After 24 h the cells were deprived of serum for a further 16 h and then stimulated for 10 min with either […] IGF1 or Buffer. The cells were lysed in 1.0 ml of ice-cold Buffer A, the lysate centrifuged at 4° C. for 10 min at 13,000×g and HA-PKBα immunoprecipitated from aliquots of the supernatant (10 μg protein) and assayed for PKBα with the peptide RPRAATF (SEQ ID NO: 9) as described previously.

GST-PDK1 = target: T1, GST-PDK1 (Homo sapiens, UniProt O15530); assay: GST-PDK1 assay: activation and phosphorylation of GST-PKBα; type: biochemical; settings: lipid 10 μM in PtdCho/PtdSer vesicles
T1 construct: Residues 52-556 of PDK1 were expressed in human embryonic kidney 293 cells; made in house; host or cells: human embryonic kidney 293 cells (pEBG2T)
T1 sequence (O15530 52-556): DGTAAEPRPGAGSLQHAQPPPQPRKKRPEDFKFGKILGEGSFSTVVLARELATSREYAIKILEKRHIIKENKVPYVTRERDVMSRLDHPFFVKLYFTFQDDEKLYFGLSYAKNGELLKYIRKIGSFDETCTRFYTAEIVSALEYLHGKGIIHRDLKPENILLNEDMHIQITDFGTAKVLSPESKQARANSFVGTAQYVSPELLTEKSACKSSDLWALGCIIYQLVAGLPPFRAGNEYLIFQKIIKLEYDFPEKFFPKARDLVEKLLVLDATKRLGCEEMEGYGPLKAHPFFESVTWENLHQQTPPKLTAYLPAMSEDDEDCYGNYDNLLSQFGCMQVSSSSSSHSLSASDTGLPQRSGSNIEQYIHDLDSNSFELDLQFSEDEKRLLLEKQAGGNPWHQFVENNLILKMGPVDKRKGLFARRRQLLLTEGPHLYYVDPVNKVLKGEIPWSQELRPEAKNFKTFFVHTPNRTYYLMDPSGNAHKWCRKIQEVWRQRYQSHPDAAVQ
Procedure: (§2) FIG. 12. […] In panels A and C, the assays were terminated by making the incubations 1% (by vol) in TRITON X-100™ (see Ref 21), and the increase in specific activity of GST-PKBα was determined. In panels B and D, the reactions were terminated by making the solutions 1% in SDS, the samples were subjected to SDS/polyacrylamide gel electrophoresis, and the phosphorylation was assessed by autoradiography of the Coomassie blue-stained band corresponding to GST-PKBα.
(§3) One unit of PDK1 activity was defined as that amount required to increase the basal activity of GST-PKBα by 1 unit of activity in one min.

PDK1 [4] = target: T2, PDK1 (Homo sapiens, UniProt O15530); assay: Direct binding of PtdIns(3,4,5)P3 to PDK1
T2 sequence (O15530 1-556): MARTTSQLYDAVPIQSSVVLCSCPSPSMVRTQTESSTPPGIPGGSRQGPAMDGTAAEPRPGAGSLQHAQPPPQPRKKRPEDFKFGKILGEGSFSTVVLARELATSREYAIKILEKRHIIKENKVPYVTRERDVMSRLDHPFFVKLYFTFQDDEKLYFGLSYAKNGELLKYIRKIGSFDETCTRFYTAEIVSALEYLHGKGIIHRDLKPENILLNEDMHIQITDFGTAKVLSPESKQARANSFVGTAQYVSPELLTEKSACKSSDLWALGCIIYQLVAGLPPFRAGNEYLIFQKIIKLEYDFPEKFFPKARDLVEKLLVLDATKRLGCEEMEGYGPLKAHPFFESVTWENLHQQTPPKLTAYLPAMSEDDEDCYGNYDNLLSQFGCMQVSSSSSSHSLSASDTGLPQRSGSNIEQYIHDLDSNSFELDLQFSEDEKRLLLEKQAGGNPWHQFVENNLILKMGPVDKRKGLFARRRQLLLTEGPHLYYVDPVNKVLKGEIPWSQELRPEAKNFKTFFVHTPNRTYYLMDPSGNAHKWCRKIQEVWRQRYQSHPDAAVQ

PDK1 [5] = assay: PDK1 assay: activation of GST-PKBα by purified PDK1 with phospholipid vesicles; type: biochemical, rabbit; settings: lipid 10 μM in vesicles of 100 μM PtdCho, 100 μM PtdSer; 30 min at 30° C.
In short: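 Two-stage assay: GST-PKBα incubated with PDK1, MgATP and phospholipid vesicles to allow activation. Reactions run 10 min at 30 °C, stopped on p81 phosphocellulose paper and washed in phosphoric acid. Basal GST-PKBα activity measured without PDK1.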

GST-DSTPK61 = target: T3, GST-DSTPK61 (Drosophila melanogaster, UniProt Q9W0V1); assay: GST-DSTPK61 assay: activation and phosphorylation of GST-PKBα; type: biochemical; settings: lipid 10 μM in PtdCho/PtdSer vesicles
T3 construct: residues 1-752 of DSTPK61 in E. coli as fusion proteins; made in house; host or cells: E. coli (pGEX-3X)
Procedure: as §2, §3

T3 sequence (Q9W0V1 85-836 Q200H/Q201E/Q317A/G443R): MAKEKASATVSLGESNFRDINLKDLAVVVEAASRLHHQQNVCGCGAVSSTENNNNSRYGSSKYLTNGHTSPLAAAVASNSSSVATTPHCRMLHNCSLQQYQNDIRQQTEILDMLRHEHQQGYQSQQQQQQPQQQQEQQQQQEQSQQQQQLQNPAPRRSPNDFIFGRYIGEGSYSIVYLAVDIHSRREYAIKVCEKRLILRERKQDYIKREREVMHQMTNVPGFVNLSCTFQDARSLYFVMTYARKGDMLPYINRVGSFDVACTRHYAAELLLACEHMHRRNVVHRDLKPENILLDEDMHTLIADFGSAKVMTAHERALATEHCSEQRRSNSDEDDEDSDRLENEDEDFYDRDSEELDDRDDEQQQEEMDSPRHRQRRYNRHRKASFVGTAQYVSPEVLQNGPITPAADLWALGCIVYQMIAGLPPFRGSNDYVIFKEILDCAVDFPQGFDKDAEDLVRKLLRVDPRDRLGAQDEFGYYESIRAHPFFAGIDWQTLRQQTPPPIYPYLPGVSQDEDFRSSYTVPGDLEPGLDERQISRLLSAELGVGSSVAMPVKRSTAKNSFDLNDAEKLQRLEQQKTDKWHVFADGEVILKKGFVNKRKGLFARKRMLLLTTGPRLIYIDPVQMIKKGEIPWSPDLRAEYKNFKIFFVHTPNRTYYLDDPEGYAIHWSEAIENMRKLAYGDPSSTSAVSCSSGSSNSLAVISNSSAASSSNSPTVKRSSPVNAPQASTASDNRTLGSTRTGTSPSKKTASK

Substance	phosphorylation of Myc-PDK1 tryptic peptides after stimulation of 293 cells (Myc-PDK1)	fold activation of GST-PKBα after stimulation of 293 cells (GST-PKBα)	endogenous PDK1 activity after stimulation of 293 cells (PDK1 [1])	further fold increase of Thr308 phosphorylation of HA-PKBα (HA-PKBα [2])	fold increase of HA-PKBα activity after stimulation (HA-PKBα [3]; 293 cells transfected with HA-PKBα alone, 10 min)	fold increase of HA-PKBα activity after stimulation (HA-PKBα [3]; 293 cells transfected with both HA-PKBα and Myc-PDK1)	activation and phosphorylation of GST-PKBα by GST-PDK1 (in words) (GST-PDK1)	binding to PDK1 (in words) (PDK1 [4])	activation of PDK1 (in words) (PDK1 [5])	activation and phosphorylation of GST-PKBα by GST-DSTPK61 (in words) (GST-DSTPK61)
IGF1: growth factor IGF1 used to stimulate 293 cells	does not alter the phosphorylation; also recorded: did not affect	45 fold	did not result in any activation or inhibition; also recorded: did not affect	4 fold	40 fold	70 fold	–	–	–	–
Phosphatidylinositol 3,4,5-tris phosphate [PtdIns(3,4,5)P3]	–	–	–	–	–	–	activated and phosphorylated GST-PKBα	bind PtdIns(3,4,5)P3 directly	only active in the presence of low micromolar concentrations	activated and phosphorylated GST-PKBα
